Measurements reported in patent publication US20250019369A1, “N-(4-aminocyclohexyl)pyrimidine-4-carboxamide derivatives as CD38 inhibitors” (Cerevance, Inc., priority 2021, published 2025).
Where a name gives a salt, the structure may show the parent alone. Read-outs that look alike come from different tables or passages of the source.

Tests used:
[1] = Tissue binding assay, brain homogenate (equilibrium dialysis); type: in vitro ADME; conditions: dialysis 4 hours at 37° C., dilution factor 4
Description: (§1) Buffer preparation. A basic solution was prepared by dissolving 14.2 g/L Na2HPO4 and 8.77 g/L NaCl in deionized H2O. An acidic solution was prepared by dissolving 15.6 g/L NaH2PO4·2H2O and 8.77 g/L NaCl in deionized H2O. Using the acidic solution, the basic solution was then titrated to pH 7.4±0.1 and stored at 4° C. for up to 1 month. The stop solution was 100% CH3CN containing 200 ng/mL tolbutamide, 200 ng/mL labetalol and 50 ng/mL metformin.
(§2) Test method. Dialysis membrane strips were soaked in ultra-pure water at room temperature for ˜1 hour. Each membrane strip containing 2 membranes was separated and soaked in 20:80 EtOH/H2O (v/v) for ˜20 min, after which they were ready for use or were stored in the solution at 2-8° C. for up to 1 month. Prior to the experiment, the membrane was rinsed and soaked for 20 min in ultra-pure water. On the day of experiment, brain homogenate was thawed in a water bath at room temperature and incubated at 37° C. for 10 min before use. Test and control compounds were dissolved in DMSO to achieve 10 mM stock solutions. DMSO working solutions were prepared at 400 μM by diluting 10 μL of stock solution. To prepare the time zero (t=0) samples to be used for recovery determination, 50 μL aliquots of loading matrix were transferred in triplicate to the sample collection plate. The samples were immediately matched with opposite blank buffer to obtain a final volume of 100 μL of 1:1 matrix/dialysis buffer (v/v) in each well. 500 μL of stop solution were added to these t=0 samples. They were then stored at 2-8° C. pending further processes along with other post-dialysis samples. To load the dialysis device, an aliquot of 150 μL of the loading matrix was transferred to the donor side of each dialysis well in triplicate, and 150 μL of the dialysis buffer was loaded to the receiver side of the well. The dialysis plate was placed in a humidified incubator at 37° C. with 5% CO2 on a shaking platform that rotated slowly (about 100 rpm) for 4 hours. At the end of the dialysis, aliquots of 50 μL of samples were taken from both the buffer side and the matrix side of the dialysis device. These samples were transferred into new 96-well plates. Each sample was mixed with an equal volume of opposite blank matrix (buffer or matrix) to reach a final volume of 100 μL of 1:1 matrix/dialysis buffer (v/v) in each well. All samples were further processed by adding 500 μL of stop solution containing internal standards. The mixture was vortexed and centrifuged at 4000 rpm for about 20 min. An aliquot of 100 μL of supernatant of all the samples was then removed for LC-MS/MS analysis. The single blank samples were prepared by transferring 50 μL of blank matrix to a 96-well plate and adding 50 μL of blank PBS buffer to each well. Then the matrix-matched samples were further processed by adding 500 μL of stop solution containing internal standards, following the same sample processing method as the dialysis samples.
(§3) Data analysis. The % undiluted unbound, % undiluted bound and % recovery were calculated using the following equations:
(§4) % Undiluted Unbound=100*1/D/((1/(F/T)−1)+1/D)
(§5) % Undiluted Bound=100−% Undiluted Unbound
(§6) where F is the analyte concentration or peak area ratio of analyte/internal standard on the buffer (receiver) side of the membrane; T is the analyte concentration or peak area ratio of analyte/internal standard on the matrix (donor) side of the membrane; To is the analyte concentration or the peak area ratio of analyte/internal standard in the loading matrix sample at time zero; and D is the dilution factor determined as 4 in this assay.

[2] = Tissue binding assay, plasma (equilibrium dialysis); type: in vitro ADME; conditions: dialysis 4 hours at 37° C.
Description: [The source words this procedure for another target and reports this target under the same test.] as §1, §2, §3, §4, §5, §6

[3] = PK brain permeability in C57BL/6 mice after single oral gavage; type: in vivo; conditions: male, C57BL/6, mouse, 2 hours post dose; for concentration at 2 h: po, 10 mg/kg; for Kpu,u (unbound brain/plasma partition coefficient) at 2 h: oral 10 mg/kg, read-out: Kpu,u (unbound partitioning coefficient, Cb,u/Cp,u)
Description: The distribution of compounds into the brain in vivo was determined in C57BL/6 mice following single oral (po) gavage administration.
Test compounds were formulated at 1 mg/mL in 0.5% HPMC E4 M, 0.2% Tween 80 in water to achieve solutions or homogenous suspensions suitable for po administration.
Formulations were administered to 3 male C57BL/6 mice at a volume of 10 mL/kg resulting in a dose level of 10 mg/kg. Blood samples were collected at 1 and 2 hours post dose into tubes containing K2EDTA as anticoagulant, processed to plasma and stored at −60° C. or lower until LC-MS/MS analysis. Brains were harvested 2 hours post dose, rinsed with saline, dried, weighed and homogenised under ice cold conditions. Brain homogenates were stored at −60° C. or lower until LC-MS/MS analysis.
Dose formulation concentrations were verified using a LC-UV or LC-MS/MS method. Test compound concentrations in plasma and brain homogenate were quantitatively determined using LC-MS/MS methods developed in individual matrices against calibration curves with QC samples included and acceptance criteria as per CRO SOPs. Concentrations in brain homogenate were corrected for the dilution factor used to prepare the homogenate to give concentrations in whole brain tissue.
Plasma and brain concentration versus time data were reported and plotted in excel. The brain to plasma ratio at 2 hours post dose was calculated for each animal using the following equation:
Brain:plasma=brain concentration (ng/g) at 2 h/plasma concentration (ng/mL) at 2 h
As only unbound test compound is available to exert an effect on the target, unbound plasma (Cp,u) and unbound brain (Cb,u) concentrations were calculated by correcting the total concentrations for the unbound fraction in plasma (fu,p) or brain (fu,b) determined from in vitro plasma protein or brain tissue binding assays using the following equations: […]
The unbound partitioning coefficient (Kpu,u) was then calculated based on the ratio of Cb,u to Cp,u using the following equation: […]
In these studies, mice were orally administrated a 10 mg/kg dose and sacrificed 2 hours post dose and tissue samples (brain homogenate and plasma) were analyzed subsequently as described above.

[4] = molecular target: Recombinant human CD38 (Homo sapiens (Human), UniProt P28907); experiment: Human CD38 hydrolase assay (fluorescence, ε-NAD substrate); type: biochemical; conditions: recombinant human CD38 0.8 nM, 4 μM ε-NAD, 30 min preincubation at 25° C., pH 7.4
Description: (§7) The ability of test compounds to inhibit human CD38 hydrolase activity was measured in a fluorescence-based assay using non-physiological NAD^+ substrate analogue 1,N^6-etheno NAD^+ (ε-NAD). Recombinant human CD38 (0.8 nM) was preincubated with test compounds in 384-well black microplates for 30 min at 25° C. in PBS (—Ca^2+/Mg^2+) containing 0.005% BSA (pH 7.4). CD38 hydrolase activity was initiated by addition of 4 μM ε-NAD, which yields the fluorescent product 1,N^6-etheno ADP-ribose. Formation of fluorescent product was followed using ClarioStar Plus (BMG) microplate reader by reading fluorescence (excitation λ=300 nm; emission λ=410 nm) at two time points, one immediately after substrate addition (t=0) and one at 10 min (t=10).
(§8) Data was analysed by subtracting the values detected at t=0 from t=10 to correct for variation in baseline fluorescence. Fluorescence values were converted to percent inhibition using the average of high signal (CD38 and ε-NAD) and low signal (CD38 and ε-NAD in the presence of a tool CD38 inhibitor) control wells. IC50 values were determined from a 10-point, half log concentration response curve with a four-parameter logistic equation.

[5] = molecular target: Recombinant mouse CD38 (Mus musculus (Mouse), UniProt P56528); experiment: Mouse CD38 hydrolase assay (fluorescence, ε-NAD substrate); type: biochemical; conditions: recombinant mouse CD38 0.4 nM, 12 μM ε-NAD, 30 min preincubation at 25° C., pH 7.4
Description: as §7, with “inhibit mouse” for “inhibit human”, “Recombinant mouse” for “Recombinant human”, “CD38 (0.4” for “CD38 (0.8”, “of 12” for “of 4”, “at 6” for “at 10”, “min (t=6).” for “min (t=10).”
as §8, with “t=6” for “t=10”, “fluorescence, and fluorescence” for “fluorescence. Fluorescence”

[6] = brain, read-out: total brain conc.
[7] = brain, total corrected for unbound fraction in brain, read-out: free brain conc.
[8] = plasma, read-out: total plasma conc.
[9] = plasma, total corrected for unbound fraction in plasma, read-out: free plasma conc.

Sequence of Recombinant human CD38 (P28907 whole entry): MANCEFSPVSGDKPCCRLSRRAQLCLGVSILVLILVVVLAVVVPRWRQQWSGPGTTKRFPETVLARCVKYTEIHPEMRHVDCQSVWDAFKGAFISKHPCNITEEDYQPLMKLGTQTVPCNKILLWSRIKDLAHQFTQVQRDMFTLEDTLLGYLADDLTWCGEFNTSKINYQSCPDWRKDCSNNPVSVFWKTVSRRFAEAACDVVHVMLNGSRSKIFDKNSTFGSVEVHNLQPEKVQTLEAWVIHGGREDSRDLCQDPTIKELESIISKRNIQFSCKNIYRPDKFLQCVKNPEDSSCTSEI
Sequence of Recombinant mouse CD38 (P56528 whole entry): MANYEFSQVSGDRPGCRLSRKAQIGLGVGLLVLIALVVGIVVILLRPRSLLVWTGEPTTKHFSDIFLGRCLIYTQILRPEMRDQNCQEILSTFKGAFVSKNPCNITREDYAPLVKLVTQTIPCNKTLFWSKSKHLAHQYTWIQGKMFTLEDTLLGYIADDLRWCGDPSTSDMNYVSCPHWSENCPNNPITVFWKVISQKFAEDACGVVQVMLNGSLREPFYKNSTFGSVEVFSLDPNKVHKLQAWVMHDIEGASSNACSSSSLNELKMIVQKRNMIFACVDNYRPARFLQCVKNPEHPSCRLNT

Row | Mouse brain (% unbound) [1] | Mouse plasma (% unbound) [2] | concentration at 2 h [3, 6] | concentration at 2 h [3, 7] | Kpu,u (unbound brain/plasma partition coefficient) at 2 h [3] | concentration at 2 h [3, 8] | concentration at 2 h [3, 9] | IC50 [4] | IC50 [5] | Compound
1 | 13.6 % unbound | 6.9 % unbound | 77 nM | 10 nM | 0.08 | 1680 nM | 115 nM |  |  | Cc1cc(C(=O)N[C@H]2CC[C@H](OC(F)F)CC2)nc(-n2ccnc2)n1 [Example 17, N-((1r,4r)-4-(difluoromethoxy)cyclohexyl)-2-(1H-imidazol-1-yl)-6-methyl-pyrimidine-4-carboxamide, reference compound]
2 | 28.4 % unbound | 25.3 % unbound | 430 nM | 122 nM | 0.03 | 13000 nM | 3290 nM |  |  | Cc1cc(C(=O)N[C@H]2CC[C@](C)(O)CC2)nc(-n2ccnc2)n1 [Example 18, N-((1r,4r)-4-hydroxy-4-methylcyclohexyl)-2-(1H-imidazol-1-yl)-6-methyl-pyrimidine-4-carboxamide, reference compound]
3 |  |  |  |  |  |  |  | ≤ 1000 nM | ≤ 40 nM | Cc1cc(C(=O)N[C@H]2CC[C@H](N)CC2)nc(-n2ccnc2)n1 [Example 27, N-((1r,4r)-4-aminocyclohexyl)-2-(1H-imidazol-1-yl)-6-methyl-pyrimidine-4-carboxamide Formate]
